Source: patent US20090170902A1, “COMPOUNDS WHICH POTENTIATE GLUTAMATE RECEPTOR AND USES THEREOF IN MEDICINE” (priority 2006, published 2009)

biological target: T1, human GluR2 flip (unedited) AMPA receptor subunit (Homo sapiens, UniProt P42262); assay: Calcium influx fluorescence assay (FLUO4, FLIPR); format: cell-based; conditions: HEK293; HEK 293 cells expressing human GluR2 flip (unedited); relative to fluorescence increase induced by cyclothiazide at maximum response; read-out: activity relative to cyclothiazide (at its maximal response)
T1 construct: expressed in transfected cells
T1 sequence (P42262 25-883 isoform P42262-2 limits assumed): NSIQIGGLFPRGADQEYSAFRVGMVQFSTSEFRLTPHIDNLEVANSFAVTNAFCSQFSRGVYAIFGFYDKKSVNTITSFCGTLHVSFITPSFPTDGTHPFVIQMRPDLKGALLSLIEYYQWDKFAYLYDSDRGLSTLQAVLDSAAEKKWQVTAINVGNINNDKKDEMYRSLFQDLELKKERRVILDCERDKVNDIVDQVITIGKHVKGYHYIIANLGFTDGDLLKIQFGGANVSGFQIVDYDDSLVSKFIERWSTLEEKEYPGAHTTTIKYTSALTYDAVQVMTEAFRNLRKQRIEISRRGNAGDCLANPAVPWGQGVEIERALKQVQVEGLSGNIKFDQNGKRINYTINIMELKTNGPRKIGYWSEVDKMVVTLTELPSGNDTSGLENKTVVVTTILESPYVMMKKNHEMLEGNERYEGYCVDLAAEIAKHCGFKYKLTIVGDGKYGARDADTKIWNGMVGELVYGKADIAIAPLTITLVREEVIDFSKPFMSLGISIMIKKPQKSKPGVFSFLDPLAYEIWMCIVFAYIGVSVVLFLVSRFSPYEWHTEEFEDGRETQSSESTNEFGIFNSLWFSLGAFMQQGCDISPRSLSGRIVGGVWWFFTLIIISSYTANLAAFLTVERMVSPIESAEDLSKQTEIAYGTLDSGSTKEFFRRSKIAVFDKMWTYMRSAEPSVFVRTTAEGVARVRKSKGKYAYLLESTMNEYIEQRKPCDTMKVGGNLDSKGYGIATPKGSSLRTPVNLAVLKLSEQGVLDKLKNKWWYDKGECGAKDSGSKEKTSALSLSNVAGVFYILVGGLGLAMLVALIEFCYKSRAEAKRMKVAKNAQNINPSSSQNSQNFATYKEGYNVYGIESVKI
Experimental: 384 well plates are prepared containing confluent monolayer of HEK 293 cells either stably expressing or transiently transfected with human GluR2 flip (unedited) AMPA receptor subunit. These cells form functional homotetrameric AMPA receptors. The tissue culture medium in the wells are discarded and the wells are each washed three times with standard buffer (80 μL) for the stable cell line (145 mM NaCl, 5 mM KCl, 1 mM MgCl2, 2 mM CaCl2, 20 mM N-[2-hydroxyethyl]-piperazine-N-[2-ethanesulfonic acid (HEPES), 5.5 mM glucose, pH 7.3) or with a Na-free buffer for the transient transfected cells (145 mM N-methyl-glucamine instead of NaCl). The plates are then incubated for 60 minutes in the dark with 2 μM FLUO4-AM dye (20 μL) (Molecular Probes, Netherlands) at room temperature to allow cell uptake of the FLUO-4AM, which is then converted to FLUO-4 by intracellular esterases which is unable to leave the cell. After incubation each well is washed three times with buffer (80 μL) (30 μL of buffer remained in each well after washing).
Compounds of the invention (or reference compounds such as cyclothiazide) are dissolved in dimethylsulfoxide (DMSO) at a stock concentration of 10 mM. These solutions are further diluted with DMSO using a Biomek FX (Beckman Coulter) in a 384 compound plate. Each dilution (1 μL) is transferred to another compound plate and buffer (50 μL) is added. An agonist stimulus (glutamate) plate is prepared by dissolving sodium glutamate in water to give a concentration of 100 mM. This solution is diluted with buffer to give a final concentration of 500 μM and dispensed into another 384-well plate (50 μL/well) using a Multidrop (Thermolabsystems).
The cell plate is then transferred into a fluorescence imaging plate based reader [such as the FLIPR384 (Molecular Devices)]. A baseline fluorescence reading is taken over a 10 to 240 second period, and then 10 μL from each plate containing a compound of the invention made up in standard buffer solution (in a concentration range from […]) is added (to give a final concentration in the range 30 μM to 3 pM). The fluorescence is read over 5 minute period. 500 μM glutamate solution (10 μL) is added (to give a final concentration of 100 μM). The fluorescence is then read over a 4 minute period. The activities of the compounds of the invention and reference compounds are determined by measuring peak fluorescence after the last addition. The activity is also expressed relative to the fluorescence increase induced by cyclothiazide at their maximum response (i.e. greater than 30 μM).
The assay described above is believed to have an effective limit of detection of a pEC50 in the region of 3.5-4.0 due to the limitations of compound solubility. The pEC50 result is generally considered to be accurate +/−0.3.

| Emax | Compound |
| --- | --- |
| ≥ 50% | CC(C)S(=O)(=O)N[C@@H]1CCO[C@@H]1c1ccc(-c2ccc(F)nc2)cc1 (relative stereo) [Example 1, N-{cis-2-[4-(6-fluoro-3-pyridinyl)phenyl]tetrahydro-3-furanyl}-2-propanesulfonamide] |
| ≥ 50% | Cc1ccc(-c2ccc([C@H]3OCC[C@H]3NS(=O)(=O)C(C)C)cc2)cn1 (relative stereo) [Example 2, N-{cis-2-[4-(6-methyl-3-pyridinyl)phenyl]tetrahydro-3-furanyl}-2-propanesulfonamide] |
| ≥ 50% | CC(C)S(=O)(=O)N[C@@H]1CCO[C@@H]1c1ccc(-c2ccc(F)cn2)cc1 (relative stereo) [Example 3, N-{cis-2-[4-(5-fluoro-2-pyridinyl)phenyl]tetrahydro-3-furanyl}-2-propanesulfonamide] |
| ≥ 50% | CC(C)S(=O)(=O)N[C@@H]1CCO[C@@H]1c1ccc(-c2cncc(F)c2)cc1 (relative stereo) [Example 4, N-{cis-2-[4-(5-fluoro-3-pyridinyl)phenyl]tetrahydro-3-furanyl}-2-propanesulfonamide] |
| ≥ 50% | Cc1cncc(-c2ccc([C@H]3OCC[C@H]3NS(=O)(=O)C(C)C)cc2)c1 (relative stereo) [Example 5, N-{cis-2-[4-(5-methyl-3-pyridinyl)phenyl]tetrahydro-3-furanyl}-2-propanesulfonamide] |
| ≥ 50% | CC(C)S(=O)(=O)N[C@@H]1CCO[C@@H]1c1ccc(-c2ccc(F)cc2)cc1 (relative stereo) [Example 6, N-[cis-2-(4′-fluoro-4-biphenylyl)tetrahydro-3-furanyl]-2-propanesulfonamide] |
| ≥ 50% | CC(C)S(=O)(=O)N[C@@H]1CCO[C@@H]1c1ccc(-c2ccc(C#N)cc2)cc1 (relative stereo) [Example 7, N-[cis-2-(4′-cyano-4-biphenylyl)tetrahydro-3-furanyl]-2-propanesulfonamide] |
| ≥ 50% | CC(=O)c1cccc(-c2ccc([C@H]3OCC[C@H]3NS(=O)(=O)C(C)C)cc2)c1 (relative stereo) [Example 8, N-[cis-2-(3′-acetyl-4-biphenylyl)tetrahydro-3-furanyl]-2-propanesulfonamide] |
| ≥ 50% | CC(C)S(=O)(=O)N[C@@H]1CCO[C@@H]1c1ccc(-c2cccs2)cc1 (relative stereo) [Example 9, N-{cis-2-[4-(2-thienyl)phenyl]tetrahydro-3-furanyl}-2-propanesulfonamide] |
